Experiments:
[1] = Stability in artificial intestinal juice; format: in vitro ADME
Protocol: During ADME studies, the concentration of the compounds was analyzed using ultra-performance liquid chromatography (UPLC) coupled with tandem mass spectrometry (MS/MS) in the multiple reaction monitoring (MRM) mode. A quantitative analysis was performed using the internal standard (IS) calibration method, with tolbutamide as the IS.
The analyses were carried out on a system composed of an Agilent 1290 Infinity UPLC system (Agilent Technologies, USA) connected by ESI interface to a tandem quadrupole mass spectrometer QTRAP 6500 (AB Sciex Corp, Framingham, MA, USA). The separation was conducted on an YMC Triart C18 50 × 2 mm, 1.9 μm column, which was kept at 35 °C. The samples were cooled to 8 °C in an autosampler, and aliquots of 1 µL were delivered onto the column. Elution was performed using gradients of A (0.1% formic acid in water) and B (0.1% formic acid in acetonitrile), at the flow rate 0.35 mL/min. […] The declustering potential was 31 V for BX and 93 V for IS, resepectively; the collision energy was attuned to 17 eV; the collision cell exit potential was 10 V for BX and 8 V for IS MRM, respectively; the analyses were recorded for 305 → 234 (BX) and 271 → 172 (tolbutamide). […]

[2] = Stability in human liver microsomes; format: in vitro ADME
Protocol: The liver metabolism of the substance was studied in the microsomal fractions of human and rat livers (XenoTech HMMCPL, RTMCPL, Kansas City, KS, USA) in the presence of the cofactor of the oxidative enzymes NADPH (AppliChem, Darmstadt, Germany).
The plate was incubated in a thermal shaker for 10 min at 400 rpm and 37 °C; then, 2.4 µL of 100× stocks of the tested substance was added into each well. A total of 30 µL of 8× cofactor solution was added to each experimental well (two replicates), 30 µL of deionized water was added to one control well, and all wells were mixed three times using a multichannel pipette with a volume of 100 µL. After mixing, the plate was placed in a thermal shaker at 400 rpm and 37 °C. The reactions were terminated at the following time points—0, 5, 10, 15, 20, and 30 min—by transferring 30 µL of the reaction mixture from the corresponding well to 1.1 mL microtubes and adding 180 µL of acetonitrile with internal standard 200 ng/mL tolbutamide (Fluka, Switzerland). To evaluate the stability of the substance in the microsomes without the cofactor, two aliquots were taken from the control well, and the reactions were terminated at 0 and 30 min time points. […] Then, the samples were centrifuged for 10 min at 1500× g, and 150 μL of the supernatant was taken for UPLC–MS/MS analysis.

[3] = Caco-2 cell monolayer permeability; format: in vitro ADME, human; conditions: human, Caco-2; read-out: Asymmetry index
Protocol: (§1) The MultiScreen Caco-2 (ATCC cat. # HTB-37) test system (Millipore, St. Charles, MO, USA) was used to study the transport through a cell monolayer, according to the manufacturer’s instructions. Briefly, a study of transport from the apical membrane to the basolateral (A-B) area and in the opposite direction (B-A) was carried out on a 21-day culture of Caco-2 at a 1 µM concentration of the tested compound for 2 h. Monolayer integrity was verified by measuring electrical resistance (TEER) using a Millicell-ERS instrument. A TEER value of at least 3 KOhm/well was determined to be acceptable.

Caco-2 cells = assay: Caco-2 cell monolayer permeability; format: in vitro ADME, human
Protocol: as §1

hERG K+-ion channel = biological target: T1, hERG K+-ion channel (Homo sapiens, UniProt Q12809); assay: Predictor hERG fluorescence polarization assay; format: binding; conditions: tracer displacement, up to 50 µM
T1 construct: purchased Invitrogen
Protocol: Determination of the binding of the BX-SI043 compound to the hERG K^+-ion channel was carried out using the Predictor hERG Fluorescence Polarization Assay Kit (Invitrogen, USA) at concentrations of 0.016, 0.08, 0.4, 2, 10, and 50 µM, according to the manufacturer’s instructions. This method is based on the measurement of the changing fluorescence polarization caused by the displacement of the high-affinity fluorescent tracer by the tested compound. A selective inhibitor of the hERG channels E-4031 was used as a control compound. Briefly, a 2X solution of membranes, containing hERG channels, was prepared and placed in 384-well plate. The tested substance, the control substance, the buffer, and the tracer were placed in the corresponding wells and incubated in the dark at room temperature for 2 h. Fluorescence polarization measurement was conducted on an Infinite M1000 PRO plate reader with the following parameters: 10 flashes per well; an excitation center wavelength of 530 nm, with a bandwidth of 5 nm; an emission center wavelength of 585 nm, with a bandwidth of […]. The calculation of the IC50 half-maximal inhibition concentration values was performed in GraphPad Prism 6.0 (GraphPad Software Inc.), based on the equations of the experimental curves.

T1 sequence (Q12809 whole entry): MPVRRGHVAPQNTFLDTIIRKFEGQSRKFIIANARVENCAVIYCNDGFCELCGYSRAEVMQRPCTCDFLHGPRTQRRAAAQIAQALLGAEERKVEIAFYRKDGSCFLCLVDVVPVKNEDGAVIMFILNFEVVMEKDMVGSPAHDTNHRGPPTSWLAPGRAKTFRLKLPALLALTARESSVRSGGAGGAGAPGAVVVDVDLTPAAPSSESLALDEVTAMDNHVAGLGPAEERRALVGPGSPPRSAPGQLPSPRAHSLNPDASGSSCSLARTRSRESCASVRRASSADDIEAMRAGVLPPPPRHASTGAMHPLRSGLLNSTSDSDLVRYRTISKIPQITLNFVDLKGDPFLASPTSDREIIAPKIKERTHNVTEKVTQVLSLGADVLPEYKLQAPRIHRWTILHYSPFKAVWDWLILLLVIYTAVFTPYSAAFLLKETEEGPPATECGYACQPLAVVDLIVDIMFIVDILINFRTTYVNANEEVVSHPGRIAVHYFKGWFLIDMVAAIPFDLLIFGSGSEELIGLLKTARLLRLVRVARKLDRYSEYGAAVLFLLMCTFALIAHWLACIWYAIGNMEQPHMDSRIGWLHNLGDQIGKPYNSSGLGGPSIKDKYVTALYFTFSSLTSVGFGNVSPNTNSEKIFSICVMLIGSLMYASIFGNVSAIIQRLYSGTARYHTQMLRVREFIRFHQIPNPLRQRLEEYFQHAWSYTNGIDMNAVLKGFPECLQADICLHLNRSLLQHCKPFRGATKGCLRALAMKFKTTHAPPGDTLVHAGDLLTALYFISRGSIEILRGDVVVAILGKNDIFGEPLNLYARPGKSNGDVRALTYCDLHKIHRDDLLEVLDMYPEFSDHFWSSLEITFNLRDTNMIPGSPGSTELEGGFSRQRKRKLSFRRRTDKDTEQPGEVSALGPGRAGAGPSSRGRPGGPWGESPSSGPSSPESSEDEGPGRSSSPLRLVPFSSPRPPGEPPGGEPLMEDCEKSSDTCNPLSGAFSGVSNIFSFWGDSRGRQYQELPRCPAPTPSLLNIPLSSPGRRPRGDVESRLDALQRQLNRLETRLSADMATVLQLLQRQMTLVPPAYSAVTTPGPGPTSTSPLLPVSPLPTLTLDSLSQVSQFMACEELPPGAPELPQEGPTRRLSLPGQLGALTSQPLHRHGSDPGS

CCOC(=O)c1[nH]c2cc(F)ccc2c1/N=N/N1CCCC1 [BX-SI043, Ethyl (E)-6-fluoro-3-(pyrrolidin-1-yldiazenyl)-1H-indole-2-carboxylate]
half-life at 1 µM ([1]; artificial intestinal juice with pancreatin, pH 6.8, pancreatin, 37 °C, 1 μM, read-out: t1/2 in artificial intestinal juice (converted)): 60 min
metabolism in intestinal juice after 4 h of incubation ([1]; pH 6.8, 37 °C, 4 h): fully metabolized
Remaining after 30 min ([2]; NADPH): 0.00%
half-life ([2]; pH 7.4, NADPH): 2.73 min
microsomal CLint ([2]; pH 7.4, NADPH): 1020 µL/min/mg
efflux ratio at 2 h, 1 µM [3]: 0.37
Papp A-B (Caco-2 cells; Caco-2, 1 µM, 2 h): 0.51 10^-6 sm/s
Papp B-A (Caco-2 cells; Caco-2, 1 µM, 2 h): 0.19 10^-6 sm/s
Mass balance (Caco-2 cells; Caco-2, first value: A-B / apical): 49%
Mass balance (Caco-2 cells; Caco-2, first value: A-B / apical, listed as ВХ-SI043): 49%
Mass balance (Caco-2 cells; Caco-2, second value: B-A / basolateral): 25.1%
IC50 (hERG K+-ion channel): > 50 µM
